This assay concerns the target T1, human CCR1 (Homo sapiens, UniProt P32246).
T1 sequence (P32246 1-355): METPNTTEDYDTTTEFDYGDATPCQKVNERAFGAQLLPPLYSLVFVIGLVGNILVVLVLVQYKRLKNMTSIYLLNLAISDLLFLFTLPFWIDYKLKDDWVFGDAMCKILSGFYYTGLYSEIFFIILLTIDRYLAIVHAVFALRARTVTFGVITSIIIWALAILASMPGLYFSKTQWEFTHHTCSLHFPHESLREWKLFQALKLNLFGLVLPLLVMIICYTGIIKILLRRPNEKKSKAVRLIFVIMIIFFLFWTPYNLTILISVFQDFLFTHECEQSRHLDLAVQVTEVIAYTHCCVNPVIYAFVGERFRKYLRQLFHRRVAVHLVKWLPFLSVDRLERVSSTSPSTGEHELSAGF
The assay is described as follows: CCR1 binding protocol (SPA, [125I]-MIP-1α displacement). Particulars: cell membrane expressing human CCR1, 0.1 nM [125I]-MIP-1α, 4 hours at ambient temperature; read-out: Relative potency (IC50). An outline of the steps: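 Human CCR1 membranes (0.5 μg/well) on SPA beads were incubated with compound and 0.1 nM [125I]-MIP-1α (final) for 4 h at ambient temperature. Buffer was Tris pH 7.4 with NaCl, KCl, MnCl and 0.1% BSA. IC50 came from ½-log compound dilutions (10 mM top DMSO stock) by displacement of bound radioligand.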
For the molecule `Cc1noc(-c2ccccc2)c1NC(=O)N1CC(F)C[C@@H]1c1nnc(C)n1Cc1ccc(Cl)cc1` (stereo partly drawn) [Compound 573], the concentration for half-maximal inhibition (IC50) was less than 50 nM.

In the case of `CCc1cc(Cn2c(C)nnc2[C@H]2CCCN2C(=O)Nc2ccc(C(F)(F)F)nc2C)ccc1Cl` [Compound 634], the IC50 is less than 50 nM.

For `Cc1nnc([C@H]2CCCN2C(=O)N[C@H]2CCOc3cc(C(F)(F)F)ccc32)n1Cc1ccc(Cl)c(Cl)c1` [Compound 410], the 50% inhibitory concentration (IC50) is 50 to 500 nM.

For `Cc1onc(-c2cccnc2)c1NC(=O)N1CCC[C@@H]1c1nnc(C)n1Cc1ccc(Cl)cc1` [Compound 306], the IC50 is less than 50 nM.

For the molecule `Cc1nnc([C@H]2CCCN2/C(=C/[N+](=O)[O-])Nc2ccc(Cl)cc2F)n1Cc1ccc(Cl)cc1` [Compound 613], the IC50 is 50 to 500 nM.

With `Cc1nnc([C@H]2CCCN2C(=O)N[C@H]2CCOc3cc(Cl)ccc32)n1Cc1ccc(Cl)cc1` [Compound 113], the half-inhibitory concentration (IC50) was less than 50 nM.

On to `CNS(=O)(=O)c1cc(NC(=O)N2CCC[C@@H]2c2nnc(C)n2Cc2ccc(Cl)cc2)c(C)cc1C` [Compound 484], for which the IC50 is less than 50 nM.

Consider `Cc1nnc([C@H]2CCCN2C(=O)Cc2ccc(Cl)cc2)n1Cc1ccc(Cl)cc1` [Compound 174], for which the IC50 fell in the range of 50 to 500 nM.

Consider `O=C(NC1(c2ccc(C(F)(F)F)cc2)CC1)N1C[C@H](O)C[C@@H]1c1nncn1Cc1ccc(Cl)cc1` [Compound 477], for which the IC50 was in the range of 50 to 500 nM.

On to `CC(C)Cc1ccc([C@H](C)NC(=O)N2CCC[C@@H]2c2ncnn2Cc2ccc(Cl)cc2)cc1` [Compound 75], for which the IC50 fell in the range of 50 to 500 nM.

In the case of `Cc1nc(C(F)(F)F)ccc1NC(=O)N1CC=C[C@@H]1c1nnc(C)n1Cc1ccc(Cl)cc1` [Compound 636], the 50% inhibitory concentration (IC50) was less than 50 nM.

For the molecule `Cc1noc(C)c1NC(=O)N1CCC[C@@H]1c1nnc(C)n1Cc1ccc(Cl)cc1` [Compound 200], the IC50 was less than 50 nM.

For the molecule `CC[C@H](NC(=O)N1CCC[C@@H]1c1ncnn1Cc1ccc(Cl)cc1)c1cc2ccccc2o1` [Compound 80], the IC50 was less than 50 nM.

Regarding `Cc1nnc([C@H]2CCCN2C(=O)N[C@H]2CCOc3cc(C(F)(F)F)ccc32)n1Cc1ccc(Br)cc1` [Compound 537], the IC50 was less than 50 nM.

For the molecule `Cc1nnc([C@H]2CCCN2C(=O)NCc2ccc(F)cc2)n1Cc1ccc(Cl)cc1` [Compound 228], the IC50 was in the range of 50 to 500 nM.

With `O=C(N[C@@H]1CCCOc2ccc(Cl)cc21)N1CCC[C@@H]1c1nncn1Cc1ccc(Cl)cc1` [Compound 148], the 50% inhibitory concentration (IC50) is 50 to 500 nM.

For `Cc1nnc([C@H]2CC(F)CN2C(=O)NCc2ccc(Cl)c(Cl)c2)n1Cc1ccc(Cl)cc1` (stereo partly drawn) [Compound 570], the IC50 was less than 50 nM.

In the case of `Cc1nnc([C@H]2CCCN2C(=O)NC(C)C)n1Cc1ccc(Cl)cc1` [Compound 252], the IC50 lay within 500 to 5000 nM.

Take `Cc1cc(C)c(NC(=O)N2CCC[C@@H]2c2nnc(C)n2Cc2ccc(Cl)cc2)c(C)n1` [Compound 296]: the IC50 was less than 50 nM.

In the case of `CC[C@H](NC(=O)N1CCC[C@@H]1c1nnc(C)n1Cc1ccc(Cl)cc1)c1ccc(C(F)(F)F)cc1` [Compound 125], the 50% inhibitory concentration (IC50) is less than 50 nM.

Regarding `Cc1nnc([C@H]2CCCN2C(=O)Nc2ccc(C(F)(F)F)[n+]([O-])c2C)n1Cc1ccc(Cl)cc1` [Compound 519], the half-inhibitory concentration (IC50) is less than 50 nM.

Turning to `Cc1ccc(NC(=O)N2CCC[C@@H]2c2nnc(C)n2Cc2ccc(Cl)cc2)c(C)n1` [Compound 362], the IC50 was less than 50 nM.

With `Cc1noc(-c2ccccc2)c1NC(=O)N1CCC[C@@H]1c1nn(C)c(C)c1Cc1ccc(Cl)cc1` [Compound 9], the IC50 lay within 500 to 5000 nM.

For `Cc1onc(-c2ccncc2)c1NC(=O)N1CCC[C@@H]1c1nnc(C)n1Cc1ccc(Cl)cc1` [Compound 304], the IC50 is less than 50 nM.

For `Cc1ccc([C@H](C)NC(=O)N2CCC[C@@H]2c2nnc(C)n2Cc2ccc(Cl)cc2)c(C)n1` [Compound 626], the IC50 lay in the range of 50 to 500 nM.

In the case of `Cc1cccc(-c2noc(C)c2NC(=O)N2CCC[C@@H]2c2nnc(C)n2Cc2ccc(Cl)cc2)c1` [Compound 288], the IC50 is less than 50 nM.

With `O=C(N[C@@H]1CCS(=O)(=O)c2ccc(Cl)cc21)N1CCC[C@@H]1c1nnc(CO)n1Cc1ccc(Cl)cc1` [Compound 370], the IC50 is less than 50 nM.

Turning to `Cc1nnc([C@H]2C[C@H](O)CN2C(=O)N[C@H]2CCOc3cc(C(F)(F)F)ccc32)n1Cc1ccc(Cl)cc1` [Compound 432], the IC50 is less than 50 nM.

Consider `Cc1nc(C(F)(F)F)ccc1NC(=O)N1CC2CC2[C@@H]1c1nnc(C)n1Cc1ccc(Cl)cc1` (stereo partly drawn) [Compound 563], for which the half-inhibitory concentration (IC50) is less than 50 nM.

For `Cc1nnc([C@H]2CCCN2C(=O)N[C@@H]2c3ccccc3C[C@H]2O)n1Cc1ccc(Cl)cc1` [Compound 403], the IC50 lay within 50 to 500 nM.

On to `Cc1nnc([C@H]2C[C@@H](O)CN2C(=O)N[C@H]2CCOc3cc(C#N)ccc32)n1Cc1ccc(Cl)cc1` [Compound 522], for which the half-inhibitory concentration (IC50) was less than 50 nM.

Take `Cc1nnc([C@H]2CCCN2C(=O)NC2CCCOc3cc(C(F)(F)F)ccc32)n1Cc1ccc(Cl)cc1` (stereo partly drawn) [Compound 177]: the 50% inhibitory concentration (IC50) was less than 50 nM.

Take `CCc1nnc([C@H]2CCCN2C(=O)Nc2c(C)cc(C(F)(F)F)cc2C)n1Cc1ccc(Cl)cc1` [Compound 167]: the IC50 is less than 50 nM.

As for `Cc1nc(C(F)(F)F)ccc1NC(=O)N1CCC[C@@H]1c1nnc(C)n1Cc1cccc(Cl)c1` [Compound 538], the IC50 was in the range of 500 to 5000 nM.

For the molecule `Cc1nnc([C@H]2CCCN2C(=O)NC2(c3cccc(C(F)(F)F)c3)CC2)n1Cc1ccc(Cl)cc1` [Compound 265], the half-inhibitory concentration (IC50) was less than 50 nM.

As to `Cc1nc(C(F)(F)F)ccc1NC(=O)N1CC(C)(O)C[C@@H]1c1nnc(C)n1Cc1ccc(Cl)cc1` (stereo partly drawn) [Compound 517], the half-inhibitory concentration (IC50) fell in the range of 50 to 500 nM.

Turning to `Cc1ncc(Cc2ccc(Cl)cc2)c([C@H]2CCCN2C(=O)Nc2c(C)noc2-c2ccccc2)n1` [Compound 21], the IC50 fell in the range of 50 to 500 nM.

On to `Cc1ccc(NC(=O)N2CCC[C@@H]2c2nnc(C)n2Cc2ccc(Cl)cc2)c(C(=O)N(C)C)c1` [Compound 295], for which the IC50 is 50 to 500 nM.

For `Cc1cc(C(N)=O)ccc1NC(=O)N1CCC[C@@H]1c1nnc(C)n1Cc1ccc(Cl)cc1` [Compound 300], the 50% inhibitory concentration (IC50) lay in the range of 50 to 500 nM.

For the molecule `Cc1nnc([C@H]2CCCN2C(=O)Nc2ccc(OC(F)(F)F)cc2)n1Cc1ccc(Cl)cc1` [Compound 136], the IC50 was less than 50 nM.

Consider `O=C(Nc1ccc(C(F)(F)F)cc1)N1CCC[C@@H]1c1nccn1Cc1ccc(Cl)cc1` [Compound 38], for which the half-inhibitory concentration (IC50) is 50 to 500 nM.

Regarding `Cc1cc(C)c(C(N)=O)cc1NC(=O)N1CCC[C@@H]1c1nnc(C)n1Cc1ccc(Cl)cc1` [Compound 363], the 50% inhibitory concentration (IC50) was in the range of 50 to 500 nM.

Consider `Cc1nc(C(F)(F)F)ccc1NC(=O)N1CCC[C@@H]1c1ncc(C)n1Cc1ccc(Cl)cc1` [Compound 566], for which the IC50 lay in the range of 50 to 500 nM.

On to `Cc1nnc([C@H]2CCCN2C(=O)N[C@H]2CCOc3cc(C(F)(F)F)ccc32)n1Cc1ccc(F)cc1` [Compound 411], for which the half-maximal inhibitory concentration (IC50) is less than 50 nM.

As for `C[C@H](NC(=O)N1CCC[C@@H]1c1ncnn1Cc1ccc(Cl)cc1)c1cc2ccccc2o1` [Compound 81], the half-inhibitory concentration (IC50) is less than 50 nM.

Regarding `Cc1nnc([C@H]2C[C@@H](O)CN2C(=O)Nc2ccc(F)c(C(F)(F)F)c2)n1Cc1ccc(Cl)cc1` [Compound 449], the IC50 lay within 500 to 5000 nM.

With `Cc1nnc([C@H]2CCCN2C(=O)Nc2ccc3c(c2)S(=O)(=O)C=C3)n1Cc1ccc(Cl)cc1` [Compound 430], the IC50 was in the range of 50 to 500 nM.

On to `Cc1nnc([C@H]2CCCN2C(=O)N[C@H]2CCOc3cc(C(F)(F)F)ccc32)n1Cc1ccc(Cl)cc1` [Compound 111], for which the half-maximal inhibitory concentration (IC50) was less than 50 nM.

Broadly, the IC50 is the concentration that gives 50% inhibition.

Values taken from patent US8288371B2, “Ortho pyrrolidine, benzyl-substituted heterocycle CCR1 antagonists for autoimmune diseases and inflammation” (Pharmacopeia, LLC, priority 2007, dated 2012).
